row,SMILES,melting point [°C]
1,CCn1ncnc1COc1nn2c(-c3ccc(F)cc3)nncc2c1-c1ccccc1F,179
2,CCCOc1ccc(S(=O)(=O)N2CC(CN(C)C)C2)cc1-c1nc2c([nH]1)c1nncn1c(=O)n2CCC,172
3,CN1C[C@H](CN2CCN(C(c3ccccc3)c3ccccc3)CC2)C[C@@H]2c3cccc4[nH]cc(c34)C[C@H]21,230 to 233
4,CC(CC(C(=O)N(C)C)(c1ccccc1)c1ccccc1)N1CCC(NC(=O)c2cnc[nH]2)C(O)C1 (stereo not drawn),155
5,N#Cc1ccc2cc(Cc3cc4ccc(C#N)cc4o3)oc2c1,207 to 209
6,O=C(c1ccc(F)cc1F)N1CCc2cc(S(=O)(=O)N3CC(c4ccccc4)NC3=O)ccc21 (stereo not drawn),128
7,O=C1Oc2ccccc2NC1Cl (stereo not drawn),133 to 136
8,O=C(c1ccc(F)cc1)N1CCN(S(=O)(=O)c2ccc(Nc3ccnc4cc(C(F)(F)F)ccc34)cc2)CC1,172 to 174
9,O=[N+]([O-])c1cccc(-c2nnc(Nc3cccc(Br)c3)s2)c1,228 to 231
10,COc1ccc2c(c1)CC(C)C1C2CCC2(C)C(=O)CCC12 (stereo not drawn),167 to 170
11,Cc1c(OCC(F)(F)F)ccnc1CS(=O)c1nc2ccccc2n1S(=O)(=O)c1ccc2c(c1)OCCOCCOCCOCCO2 (stereo not drawn),76 to 80
12,C=C1CCC2C3CC=C4C=C(OC)CCC4(C)C3CCC12C (stereo not drawn),97 to 99
13,CCC(O)c1ncn2c1CN(C)C(=O)c1ccccc1-2 (stereo not drawn),145 to 147
14,CCOC(=O)CC1(N2C(=O)c3ccccc3C2=O)C(=O)N(c2ccccc2)c2ccccc21 (stereo not drawn),148 to 149
15,CS(=O)(=O)c1ccc(-c2sc(CC#N)nc2-c2ccc(F)cc2)cc1,151 to 152
16,O=C1CCC(n2cnc3cccc(Cl)c3c2=O)C(=O)N1 (stereo not drawn),308 to 310
17,O[C@@H](COc1ccccc1)CN(CCc1ccc(OCc2ccccc2)cc1)C[C@@H](O)COc1ccccc1 (racemic),106 to 110
18,CCCN(CCC)C1CCc2c(ccc3[nH]cc(C(C)=O)c23)C1 (stereo not drawn),196 to 197
19,CC1(CBr)SC2C(NC(=O)COc3ccccc3)C(=O)N2C1C(=O)O (stereo not drawn),164 to 166
20,O=C(c1ccc2nonc2c1)N1CC2C=CC1C2 (stereo not drawn),106 to 108
21,CN(C)c1nc(C(F)(F)F)cc(=O)o1,79
22,CSC(=S)NCc1cn(-c2ccc(N3CCOCC3)c(F)c2)nn1,148
23,COc1cccc2c1CC[C@@H](O)[C@@H]2N1CCCC1 (relative stereo),113 to 115
24,CCOC(=O)COc1cc(OC)c2c(c1)OC1(CCCC1)CC2=O,81 to 82
25,Cn1c2ccc(Cl)cc2c(=O)n2nc(C(N)=O)cc12,> 360
26,COC1CC(C(=O)O)Cc2onc(-c3ccc(Cl)cc3)c21 (stereo not drawn),190 to 191
27,CCc1nc(/C=C\c2cn(-c3ccccc3)nc2OCc2ccc(OCc3nc(-c4cccc(C(=O)OC)c4)oc3C)c(OC)c2)cs1,125 to 126
28,CCc1cc([N+](=O)[O-])c(N)c([N+](=O)[O-])c1COC,71 to 73

# Further lines, results first:
row,melting point [°C],SMILES
1,183 to 184,CC(=O)Nc1c(C(=O)c2cccc(Br)c2)[nH]c2cc(Cl)ccc12
2,136 to 139,COc1cc(OC)nc(NC(=O)NS(=O)(=O)Oc2ccccc2)n1
3,170 to 171,Cc1ccc2c(c1)sc1ncc(C=O)n12
4,141 to 142,CCOC(=O)C(=O)Nc1cc(C)c(C(=O)OCC)s1
5,45 to 48,CCOC(=S)Cc1nc2ccccc2s1
6,221 to 223,Cc1c(C#N)cc(C(C)(C)C)c(O)c1C(=O)Nc1ccc(S(=O)(=O)c2ccc(Br)cc2)cc1C(F)(F)F
7,127 to 128,COc1ccc(C(=O)Nc2ccccc2C(C)(O)c2ccccn2)cc1 (stereo not drawn)
8,167 to 169,COc1ccc(NC(=S)NC(=O)c2ccccc2)cc1COc1cc(Cl)cc(Cl)c1
9,116 to 118,CC(C)(C)NNC(=O)c1ccccc1CO
10,131 to 133,CNc1ccccc1C(=O)NCCCn1cncn1
11,154 to 155,Cc1nn(CC(=O)COCc2ccccc2)c(-c2ccc(F)cc2)c1-c1ccc2c(c1)NC(=O)CO2
12,108 to 110,CC(C)CC[C@H](O)[C@H](CC1CCCCC1)NC(=O)[C@H](Cc1c[nH]cn1)NC(=O)[C@H](Cc1ccccc1)NC(=O)N1CCOCC1
13,135 to 136,COC(=O)c1ccc(C2C(=O)Oc3c2cc(C(C)(C)C)cc3C(C)(C)C)cc1 (stereo not drawn)
14,167 to 169,CC(C)(C)OC(=O)NCCCCn1c(-c2ccccc2)cc2ccc(C(=O)c3cc(CC(=O)O)c(-c4ccccc4)s3)cc21
15,239 to 242,CCCOc1ccccc1-c1cc(C)c(C(N)=O)c(=O)[nH]1
16,185,CC(=O)c1ccc2c(c1)Sc1cc(C(C)=O)c(Cl)cc1N2C
17,148 to 150,CC(=O)Oc1cc(Cl)ccc1C1(OC(C)=O)C(=O)c2ccccc2C1=O
18,194,CSCC[C@@H](NC(=O)[C@H](Cc1ccc(O)cc1)NC(=O)OC(C)(C)C)C(=O)NCC(=O)O
19,242,CC(=O)Nc1nc2c(NC(=O)c3ccc4cc(Br)ccc4c3)cccc2s1
20,146 to 148,COC(=O)CCCCCC(c1ccccc1)c1c(C)c(O)c(C)c(C)c1OC(C)=O (stereo not drawn)

row,melting point [°C],SMILES
1,121 to 122,COc1c(NC(=O)c2ccc(Br)cc2)ccc2cc(CN3CCCC3)cnc12
2,95,CCN(CC)c1ccc(-c2cc(-c3ccc(C(=O)O)cc3)ccc2CCCO)cc1C(C)(C)C
3,293 to 295,O=c1[nH]c2cc(Cl)ccc2c(O)c1-c1cccc(OCc2ccccc2)c1
4,186 to 187,Cc1ccc(-c2nn(-c3ccccc3)c(N)c2C(N)=O)cc1
5,70 to 72,CC(C)(C)[Si](OCC[C@H](O)CO)(c1ccccc1)c1ccccc1
6,113 to 115,COc1ccc2cccnc2c1O
7,57 to 58,COc1ccc(Oc2ccccc2)c(NS(=O)(=O)C(F)(F)F)c1
8,227 to 228,CNC(=O)c1ccccc1Nc1nc(Nc2cc3c(cc2OC)N(C)C(=O)OCC3)ncc1Br
9,137 to 140,CN(C)Cc1c(-c2ccc3sc(=O)n(C)c3c2)nc2ccccn12
10,138 to 140,COc1ccc(N(CC(=O)NCC(=O)O)C(=O)c2ccc(Cl)cc2)cc1
11,108 to 110,CN(Cc1cc2c3c(c1)c(=O)c(C(=O)NCc1ccc(F)cc1)cn3CC(=O)N2C)C[C@@H](O)c1cccnc1
12,89 to 91,COC(=O)c1ccc(OCCNC(=O)c2ccc(C(C)C)cc2)cc1
13,230 to 232,CC(=O)Nc1ccc2c(c1)S(=O)(=O)NCN2C1CC1
14,237 to 239,Nc1ccncc1-c1n[nH]c2ccccc12
15,208 to 210,CCOC(=O)NN=Cc1nc(C)[nH]c1C
16,42 to 43,COC(=O)C(C)(C)Cc1ccc2oc(-c3nc(C(C)(C)C)cs3)cc2c1
17,113 to 117,CCCCCCN(Cc1ccc(-c2ccccc2-c2nnn[nH]2)cc1)c1ncc(C(=O)O)s1
18,206,CC(C)n1cc(-c2nc(C(N)=O)c(N)nc2-c2ccccc2OC(F)(F)F)ccc1=O
19,116 to 120,CC(=O)c1cc2cccc(OC3SCC(O)C(O)C3O)c2o1 (stereo not drawn)
20,51 to 53,CCC#CN1CCC(O)(Cc2ccccc2)CC1
